Experiments:
[1] = system: PV 5′ UTR RNA; assay type: binding, poliovirus
[2] = system: IRES initiated translation; conditions: cited from earlier work

Sequence	binding to PV 5′ UTR RNA relative to wild-type La antigen [1]	inhibition of IRES initiated translation [2]
AALEAKICHQIEQQFGDF [Peptide 772]	dramatically reduced binding	–
AALEAKICHQIEYYFGDF [LAP]	–	inhibit this translation
AALEAKICHQIEYYQGDQ [Peptide 771]	dramatically reduced binding	–

From patent US20020173475A1 (priority 2001, published 2002)
